Measured values as given in PubChem BioAssay (NCI).
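Compound exposure: 48 hours, 5 concentrations, 96-well plates. GI50 is the concentration that inhibits growth by half. TGI: total growth inhibition.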

Assays:
Test in all cases: growth of human tumour cells (NCI), 48 h
[1] = system: COLO 205 colon
[2] = system: SK-MEL-5 melanoma
[3] = system: SW-620 colon
[4] = system: SF-539 CNS
[5] = system: SN12C renal
[6] = system: SNB-75 CNS
[7] = system: RPMI-8226 leukemia
[8] = system: DMS 114 small cell lung
[9] = system: HOP-18 NSCLC
[10] = system: M14 melanoma
[11] = system: HCT-116 colon
[12] = system: HT29 colon
[13] = system: KM12 colon
[14] = system: A549 NSCLC
[15] = system: M19-MEL melanoma
[16] = system: HCT-15 colon
[17] = system: UACC-257 melanoma
[18] = system: MALME-3M melanoma
[19] = system: SF-295 CNS
[20] = system: NCI-H522 lung
[21] = system: TK-10 renal
[22] = system: SF-268 CNS
[23] = system: 786-0 renal
[24] = system: UO-31 renal
[25] = system: XF 498 CNS
[26] = system: A498 renal
[27] = system: NCI-H460 lung
[28] = system: EKVX NSCLC
[29] = system: HOP-92 NSCLC
[30] = system: SK-MEL-28 melanoma
[31] = system: MOLT-4 leukemia
[32] = system: SNB-19 CNS
[33] = system: LXFL 529 NSCLC
[34] = system: HOP-62 NSCLC
[35] = system: DMS 273 small cell lung
[36] = system: RXF 393 renal
[37] = system: IGROV1 ovarian
[38] = system: OVCAR-5 ovarian
[39] = system: K-562 leukemia
[40] = system: ACHN renal
[41] = system: LOX IMVI melanoma
[42] = system: HCC-2998 colon
[43] = system: CAKI-1 renal
[44] = system: SNB-78 CNS
[45] = system: DLD-1 colon
[46] = system: KM20L2 colon
[47] = system: SK-OV-3 ovarian
[48] = system: OVCAR-3 ovarian
[49] = system: OVCAR-8 ovarian
[50] = system: U251 CNS
[51] = system: NCI-H23 lung
[52] = system: UACC-62 melanoma
[53] = system: SK-MEL-2 melanoma
[54] = system: OVCAR-4 ovarian
[55] = system: HL-60(TB) leukemia
[56] = system: SR leukemia
[57] = system: CCRF-CEM leukemia
[58] = system: NCI-H226 lung

Compound `CCC[CH2][Sn]1([CH2]CCC)[O]C(=O)CN=C(C)c2ccccc2[O]1` has a GI50 [1] of 569 nM, a TGI [1] of 1900 nM and a GI50 [2] of 2550 nM. It also gave a TGI [2] greater than 100000 nM, a GI50 [3] of 413 nM and a TGI [3] of 1590 nM. The GI50 [4] was 2780 nM, the TGI [4] was greater than 100000 nM and the GI50 [5] was 1130 nM. For the same compound, the TGI [5] was 2340 nM, the GI50 [6] was 735 nM and the TGI [6] was 2340 nM. The GI50 [7] was 468 nM, the TGI [7] was 2800 nM and the GI50 [8] was 227 nM. For the same compound, the TGI [8] was 655 nM, the GI50 [9] was 1500 nM and the TGI [9] was 2850 nM. For the same compound, the GI50 [10] was 1370 nM, the TGI [10] was 2670 nM and the GI50 [11] was 1550 nM. For the same compound, the TGI [11] was 2920 nM, the GI50 [12] was 1660 nM and the TGI [12] was 3100 nM. For the same compound, the GI50 [13] was 1270 nM, the TGI [13] was 2580 nM and the GI50 [14] was 3000 nM. It also gave a TGI [14] of 9620 nM, a GI50 [15] of 528 nM and a TGI [15] of 1800 nM. The GI50 [16] was 1150 nM, the TGI [16] was 2460 nM and the GI50 [17] was 955 nM. The TGI [17] was 2200 nM, the GI50 [18] was 1040 nM and the TGI [18] was 2300 nM. For the same compound, the GI50 [19] was 1480 nM, the TGI [19] was 2860 nM and the GI50 [20] was 179 nM. For the same compound, the TGI [20] was 369 nM, the GI50 [21] was 586 nM and the TGI [21] was 1780 nM. For the same compound, the GI50 [22] was 306 nM, the TGI [22] was 1650 nM and the GI50 [23] was 1290 nM. The TGI [23] was 2580 nM, the GI50 [24] was 1320 nM and the TGI [24] was 2630 nM. For the same compound, the GI50 [25] was 1740 nM, the TGI [25] was 3190 nM and the GI50 [26] was 2720 nM. For the same compound, the TGI [26] was 11400 nM, the GI50 [27] was 1790 nM and the TGI [27] was 3550 nM. For the same compound, the GI50 [28] was 1480 nM, the TGI [28] was 2990 nM and the GI50 [29] was 978 nM. It also gave a TGI [29] of 2180 nM, a GI50 [30] of 868 nM and a TGI [30] of 2110 nM. It also gave a GI50 [31] of 740 nM, a TGI [31] of 5040 nM and a GI50 [32] of 1090 nM. For the same compound, the TGI [32] was 2290 nM, the GI50 [33] was 254 nM and the TGI [33] was 1280 nM. It also gave a GI50 [34] of 5210 nM, a TGI [34] greater than 100000 nM and a GI50 [35] of 1390 nM. For the same compound, the TGI [35] was 2740 nM, the GI50 [36] was 222 nM and the TGI [36] was 786 nM. It also gave a GI50 [37] of 2830 nM, a TGI [37] greater than 100000 nM and a GI50 [38] of 1810 nM. It also gave a TGI [38] of 3240 nM, a GI50 [39] of 289 nM and a TGI [39] of 4740 nM. It also gave a GI50 [40] of 881 nM, a TGI [40] of 2130 nM and a GI50 [41] of 533 nM. The TGI [41] was 1840 nM, the GI50 [42] was 1530 nM and the TGI [42] was 2920 nM. The GI50 [43] was 534 nM, the TGI [43] was 2100 nM and the GI50 [44] was 312 nM. It also gave a TGI [44] of 1700 nM, a GI50 [45] of 1940 nM and a TGI [45] greater than 100000 nM. It also gave a GI50 [46] of 1550 nM, a TGI [46] of 2970 nM and a GI50 [47] of 2370 nM. The TGI [47] was 4140 nM, the GI50 [48] was 1400 nM and the TGI [48] was 2730 nM. It also gave a GI50 [49] of 1390 nM, a TGI [49] of 2830 nM and a GI50 [50] of 1100 nM. For the same compound, the TGI [50] was 2300 nM, the GI50 [51] was 429 nM and the TGI [51] was 1780 nM. For the same compound, the GI50 [52] was 922 nM, the TGI [52] was 2210 nM and the GI50 [53] was 500 nM. It also gave a TGI [53] of 1550 nM, a GI50 [54] of 1730 nM and a TGI [54] of 3620 nM.
Work on `CC(C)NC(=O)OCc1nnn2c1CCC2` yielded a TGI [2] greater than 100000 nM, a TGI [3] greater than 100000 nM and a TGI [55] greater than 100000 nM. It also gave a TGI [4] greater than 100000 nM, a TGI [5] greater than 100000 nM and a TGI [6] greater than 100000 nM. For the same compound, the TGI [10] was greater than 100000 nM, the TGI [11] was greater than 100000 nM and the TGI [12] was greater than 100000 nM. For the same compound, the TGI [13] was greater than 100000 nM, the TGI [14] was greater than 100000 nM and the TGI [15] was greater than 100000 nM. For the same compound, the TGI [16] was greater than 100000 nM, the TGI [17] was greater than 100000 nM and the TGI [18] was greater than 100000 nM. It also gave a TGI [19] greater than 100000 nM, a TGI [20] greater than 100000 nM and a TGI [21] greater than 100000 nM. The TGI [24] was greater than 100000 nM, the TGI [25] was greater than 100000 nM and the TGI [27] was greater than 100000 nM. The TGI [28] was greater than 100000 nM, the TGI [56] was greater than 100000 nM and the TGI [29] was greater than 100000 nM. For the same compound, the TGI [30] was greater than 100000 nM, the TGI [31] was greater than 100000 nM and the TGI [57] was greater than 100000 nM. It also gave a TGI [33] greater than 100000 nM, a TGI [34] greater than 100000 nM and a TGI [36] greater than 100000 nM. It also gave a TGI [37] greater than 100000 nM, a TGI [38] greater than 100000 nM and a TGI [39] greater than 100000 nM. The TGI [40] was greater than 100000 nM, the TGI [41] was greater than 100000 nM and the TGI [42] was greater than 100000 nM. For the same compound, the TGI [44] was greater than 100000 nM, the TGI [45] was greater than 100000 nM and the TGI [46] was greater than 100000 nM. The TGI [47] was greater than 100000 nM, the TGI [48] was greater than 100000 nM and the TGI [49] was greater than 100000 nM. For the same compound, the TGI [50] was greater than 100000 nM, the TGI [51] was greater than 100000 nM and the TGI [52] was greater than 100000 nM. The TGI [53] was greater than 100000 nM and the TGI [54] was greater than 100000 nM.
Compound `COC(=O)C(=NNc1ccccc1[N+](=O)[O-])C(=O)OC` has a TGI [1] greater than 100000 nM, a TGI [3] greater than 100000 nM and a TGI [55] greater than 100000 nM. It also gave a TGI [4] greater than 100000 nM, a TGI [5] greater than 100000 nM and a TGI [9] greater than 100000 nM. For the same compound, the TGI [11] was greater than 100000 nM, the TGI [12] was greater than 100000 nM and the TGI [13] was greater than 100000 nM. The TGI [14] was greater than 100000 nM, the TGI [15] was greater than 100000 nM and the TGI [17] was greater than 100000 nM. It also gave a TGI [18] greater than 100000 nM, a TGI [19] greater than 100000 nM and a TGI [20] greater than 100000 nM. For the same compound, the TGI [21] was greater than 100000 nM, the TGI [22] was greater than 100000 nM and the TGI [23] was greater than 100000 nM. It also gave a TGI [25] greater than 100000 nM, a TGI [26] greater than 100000 nM and a TGI [58] greater than 100000 nM. The TGI [27] was greater than 100000 nM, the TGI [28] was greater than 100000 nM and the TGI [56] was greater than 100000 nM. The TGI [29] was greater than 100000 nM, the TGI [30] was greater than 100000 nM and the TGI [31] was greater than 100000 nM. It also gave a TGI [32] greater than 100000 nM, a TGI [57] greater than 100000 nM and a TGI [33] greater than 100000 nM. For the same compound, the TGI [34] was greater than 100000 nM, the TGI [35] was greater than 100000 nM and the TGI [36] was greater than 100000 nM. For the same compound, the TGI [37] was greater than 100000 nM, the TGI [38] was greater than 100000 nM and the TGI [39] was greater than 100000 nM. It also gave a TGI [40] greater than 100000 nM, a TGI [41] greater than 100000 nM and a TGI [42] greater than 100000 nM. For the same compound, the TGI [43] was greater than 100000 nM, the TGI [46] was greater than 100000 nM and the TGI [47] was greater than 100000 nM. For the same compound, the TGI [49] was greater than 100000 nM, the TGI [50] was greater than 100000 nM and the TGI [51] was greater than 100000 nM. It also gave a TGI [53] greater than 100000 nM and a TGI [54] greater than 100000 nM.
